Results on seven compounds are retold here after patent publication US6974867B2, “Compositions and methods for treating neoplastic disease using chemotherapy and radiation sensitizers” (Chiron Corporation, priority 2000, dated 2005).

One data set has as its system KIAA0175 mRNA. Briefly: Northern analysis of KIAA0175 mRNA after anti-sense oligonucleotide transfection. Format: cell-based, human. To be noted: HT1080 cells; for level of KIAA0175 mRNA expression: 100 nM oligonucleotide, Northern analysis; for KIAA0175 mRNA expression over time: 24 to 72 hours after oligonucleotide administration. The protocol:
HT 1080 cells express endogenous KIAA0175. These cells were transfected with either the FITC (negative control) or AKT1 (positive control) oligonucleotides), 1182, or 545 oligonucleotides. Briefly, 100 nM of the respective anti-sense oligonucleotide was mixed with lipitoid 1 transfection reagent (Huang et al., Chemistry and Biology 5(6):346-354 (1998)) in a 1:3 volume to volume ratio in OPTI-MEM (GibcoBRL). The mixture was added to the HT1080 cells in complete medium (EMEM, 10% heat inactivated fetal bovine serum (FBS), 2 mM L-Glutamine, 100 U/ml Penicillin, and […] Streptomycin) and the cells were incubated at 37° C. for ^˜4-5 hours in the presence of the anti-sense oligonucleotides before changing to fresh complete medium. Total RNA was extracted at day 1 or 24, 48, or 72 hours following transfection and mRNA levels of KIAA0175 were detected by Northern analysis. 20 μg of total RNA were subjected to electrophoresis on a denaturing agarose gel. RNA was transferred to nitrocellulose and KIAA0175 mRNA was detected by probing with a ^32P-labeled, 0.7 kb KIAA0175 cDNA fragment. To control for equal loading of individual lanes, the blot was stripped of the KIAA0175 probe and re-probed with a ^32P-labeled G3PDH cDNA probe obtained from Clontech.

The test system of the next data set is HCT116 cells. Briefly: Colony (Crystal Violet) viability assay, sensitization to γ-irradiation and hydroxyurea. The conditions noted are these: 11 days of culture, compared to RC-treated cells. The data set is classed as cell-based. The protocol: γ-irradiation treatment was performed as follows: On day one, HCT116 cells were transfected with either the KIAA0175 anti-sense molecule No. 545 (545) or with the 545 reverse control molecule (RC) and plated onto tissue-culture plates. On day three, one plate each of 545 and RC transfected cells were treated with γ-irradiation (2, 4 or 8 Gy) and cultured an additional 2 hours. The γ-irradiation treated cells as well as untreated control HCT116 cells were trypsinized, counted and seeded in triplicate onto 6-well tissue culture plates to a density of 1000 cells per well. After 11 days of culture, the cells were assayed for viability by staining with Crystal Violet. Total numbers of cell colonies were then counted.
Hydroxyurea treatment was performed as follows: On day one, HCT116 cells were transfected with either the KIAA0175 anti-sense molecule No. 545 (545) or with the 545 reverse control molecule (RC) and plated onto tissue-culture plates. The following day (day two), one plate each of 545 and RC transfected cells were treated with hydroxyurea (1 mM final concentration) and cultured an additional 24 hours. On day three, the hydroxyurea treated cells as well as untreated control HCT116 cells were trypsinized, counted and seeded in triplicate onto 6-well tissue culture plates to a density of 1000 cells per well. […] Total numbers of cell colonies were then counted.

Data set [1] relates to Breast Cancer Cell Line MDA-MB-231. In words: LDH cytotoxicity assay, breast cancer cell line. Format: cell-based. On the procedure: (§1) The effect of KIAA0175 anti-sense molecules on cell sensitivity to chemotherapeutic drugs was tested on several cell lines using the lactate dehydrogenase (LDH) cytotoxicity assay essentially as follows:
(§2) Day 1: Cells were seeded in 4 separate 96 well plates, typically 5000 cells/well and incubated at 37° C. and 5% CO2.
(§3) Day 2: Cells were transfected with the KIA175-1182 and KIA175-545 anti-sense oligonucleotides (SEQ ID NOs:5 and 1, respectively) as well as the reverse complement controls, RC1182 and RC545 (SEQ ID NOs:6 and 2, respectively) essentially as described in Example 4, with and without drug. One plate (day 0) was left untransfected as a seeding control.
(§4) The transfection was carried out using a lipid vehicle for delivery as described in WO 01/16306, hereby incorporated in its entirety. Briefly, the transfection used agents known as “lipitoids” and “cholesteroids”, described, for example, in PCT publications WO 01/16306, WO 98/06437 and WO 99/08711, based on U.S. Ser. No. 60/023,867, 60/054,743, and 09/132,808, which are also hereby incorporated by reference. These lipid-cationic peptoid conjugates are shown in these references to be effective reagents for the delivery of plasmid DNA to cells in vitro. Any of the carriers described in the above-referenced applications are suitable for use in transfection of the oligonucleotides described herein.
(§5) Depending on the cell type, different lipid vehicles were used for different lengths of time for transfection. […] The transfection was carried out in complete medium and the final anti-sense oligonucleotide concentration was 300 nM per well. In the wells with drug, the drug was added to the culture at the beginning of the transfection.
(§6) Starting on Day 3: Cells were recovered, 1 plate/day and release of LDH into the supernatant was measured using a kit from Roche according to manufacturer's instructions (Roche Diagnostics, Basel, Switzerland) (data labeled as day 1, 2, 3).
(§7) For each sample, the data are expressed as a ratio of the level of LDH in wells containing cells transfected with anti-sense (AS) over the level of LDH in wells containing cells transfected with the reverse complement controls (RC) (ie:AS/RC). Thus, cells that become sensitized to drug will die and release LDH into the supernatant. An increase in the ratio signifies increased cell death and thus, higher levels of LDH in the media. A ratio higher than 1.5 signifies an effect of the anti-sense over the reverse complement control.

Data set [2] relates to Normal Breast Epithelial Cell Line 184B5. Briefly: LDH cytotoxicity assay, normal breast epithelial cell line. Format: cell-based. The protocol:
as §1, §2, §3, §4, §5, §6, §7

The test system of another data set is KIAA0175. In words: KIAA0175 protein levels after exposure of cells to hydroxyurea (Western). To be noted: recombinant HA-fusion protein or endogenously expressed.
The subject of another data set is HT1080 cells. In words: Cell cycle arrest upon γ-irradiation in transfected HT1080 cells. Format: cell-based, human. On the procedure:
Because both p53 and p21 are involved in the G1 to S phase cell cycle transition, the following experiments were performed in order to assess the effect of KIAA0175 anti-sense molecules on cell cycle regulation.
Table 1 discloses the percentage of HT1080 cells in each stage of the cell cycle at various times following exposure to γ-irradiation. By 24 hours, cells were arrested in both the G1 and G2 phases as evidenced by the elevated percentage of cells in G0/G1 and G2/M phases as compared to the diminished percentage of cells in the S phase.
Table 2 discloses the effect of KIAA0175 anti-sense molecules on γ-irradiation induced cell-cycle arrest. In cells transfected with anti-sense molecules, there was a reduction in the accumulation of cells in the G1 phase and a minimized reduction in the number of cells in the S phase as compared to cells transfected with a “reverse-control” anti-sense molecule as control.

The test system of a further data set is p53. In words: Western analysis of p53 after γ-irradiation of transfected HT1080 cells. Format: cell-based, human. The conditions noted are these: 10 Gy γ-irradiation 24 hours after transfection. The protocol: HT1080 cells expressing endogenous KIAA0175 were transfected with the KIAA0175 anti-sense oligonucleotide (1182) and the corresponding reverse control oligonucleotide (RC1182). After culture for 24-hours, the transfected cells were treated with 10 Gy of γ-irradiation. At various times after irradiation, cells were harvested and lysates prepared and subjected to SDS-PAGE. p53, Erk2, and p21 proteins were detected by Western analysis.

The mark [3] stands for this setting: MDA-MB-231 metastatic breast cancer cells.

Take “KIA175-545: KIAA0175 anti-sense oligonucleotide 5′-GAGGTCCCTGTGAGCATAGCCCTGG-3′ (listed as DNA, chemistry not given here)”: the “level of KIAA0175 mRNA expression” value in the data set on KIAA0175 mRNA was “effective in reducing the level of KIAA0175 mRNA expression”. Further, the “KIAA0175 mRNA expression over time” value in the data set with KIAA0175 mRNA was “increased gradually”. In the data set on HCT116 cells (hydroxyurea 1 mM 24 hours), the “sensitivity to hydroxyurea (number of viable colonies)” value is recorded as “increased the sensitivity of HCT116 cells to hydroxyurea”. For the same compound, in the data set with HCT116 cells (γ-irradiation 2, 4 or 8 Gy), the “sensitivity to γ-irradiation (number of viable colonies)” value is “increased the sensitivity of HCT116 cells to γ-irradiation”. Further, the “LDH ratio AS/RC” value was 0.84 in data set [1] (MDA-MB-231, Day 0 (untransfected seeding control plate), 300 nM oligonucleotide); 1.05 in data set [1] (MDA-MB-231, Day 1, 300 nM oligonucleotide, ratio higher than 1.5 signifies an effect); 1.37 in data set [1] (MDA-MB-231, Day 2, 300 nM oligonucleotide, ratio higher than 1.5 signifies an effect); 1.62 in data set [1] (MDA-MB-231, Day 3, 300 nM oligonucleotide, ratio higher than 1.5 signifies an effect); 0.0000 in data set [2] (184B5, Day 0 (untransfected seeding control plate), 300 nM oligonucleotide); 1.1152 in data set [2] (184B5, Day 1, 300 nM oligonucleotide, ratio higher than 1.5 signifies an effect). Further, the “LDH ratio AS/RC” value in data set [2] (184B5, Day 2, 300 nM oligonucleotide, ratio higher than 1.5 signifies an effect) is reported as 1.1258; in data set [2] (184B5, Day 3, 300 nM oligonucleotide, ratio higher than 1.5 signifies an effect) it was 1.2934. For the same compound, the “sensitization to the effects of Campthesin (CPT)” value in data set [1] (setting [3]) was “sensitizes”. In addition, in data set [1] (setting [3]), the “sensitization to the effects of Cisplatin” value is reported as “sensitizes”. In addition, in data set [1] (setting [3]), the “sensitization to the effects of Doxorubicin (Doxo)” value was “did not appear to sensitize”. Further, the “effect on cell death (LDH)” value in data set [2] (184B5 normal breast epithelial cell line) was “neither KIA175-1182 nor KIA175-545 has an effect”.

Consider “FITC: negative control oligonucleotide 5′-TCTGCTGCTGTCGACAACGAGTGTC-3′ (FITC label, position not given here) [reference compound]”, for which, in the data set on KIAA0175 mRNA, the “level of KIAA0175 mRNA expression” value is on record as “ineffective in reducing KIAA0175 mRNA expression” and the “KIAA0175 mRNA expression over time” value is “no effect”.

On to “RC736: reverse control oligonucleotide 5′-CTCCGTCTACAAACCTCGTACCCGT-3′ (listed as DNA, chemistry not given here) [reference compound]”, for which the “level of KIAA0175 mRNA expression” value in the data set on KIAA0175 mRNA is listed as “ineffective in reducing KIAA0175 mRNA expression”.

As to “AKT: positive control oligonucleotide 5′-CCATAGTGAGGTTGCATCTGGTGCC-3′ (listed as DNA, chemistry not given here) [reference compound]”, in the data set with KIAA0175 mRNA, the “level of KIAA0175 mRNA expression” value was “ineffective in reducing KIAA0175 mRNA expression”.

On to “KIA175-736: KIAA0175 anti-sense oligonucleotide 5′-TGCCCATGCTCCAAACATCTGCCTC-3′ (listed as DNA, chemistry not given here)”, for which the “level of KIAA0175 mRNA expression” value with KIAA0175 mRNA is on record as “effective in reducing the level of KIAA0175 mRNA expression”.

On to `NC(=O)NO` [hydroxyurea], for which the KIAA0175 protein levels result in the data set on KIAA0175 is “caused an increase in KIAA0175 protein levels”.

With “RC1182: reverse control oligonucleotide 5′-AGGACACCTGTTCGGTCACGATGGG-3′ (listed as DNA, chemistry not given here) [reference compound]”, the “level of KIAA0175 mRNA expression” value in the data set on KIAA0175 mRNA is given as “ineffective in reducing KIAA0175 mRNA expression”. Further, in the data set on HT1080 cells (+ γ-irradiation), the “percentage of cells in G0-G1” value is on record as 52.5%, the “percentage of cells in G2-M” value is 32.6% and the “percentage of cells in S” value stood at 14.9%. Besides, in the data set on HT1080 cells (− γ-irradiation), the “percentage of cells in G0-G1” value was 47.6%, the “percentage of cells in G2-M” value was 19.4% and the “percentage of cells in S” value came out at 33%. Moreover, the “γ-irradiation induced increase in p53 protein level” value with p53 is “increase in p53 protein level observed”.
